# Tests used:
# Fibroblasts (BJ) = assay: Safety, MTT test in fibroblasts; assay type: cell-based; conditions: 48 hours
# Description: (§1) In order to test the safety of the compounds, both normal human cells were used: keratinocytes (HaCaT), fibroblasts (BJ), primary melanocytes that occur in the skin, as well as human cancer cells: the hepatocarcinoma line HepG2 and the neuroblastoma line SH-SY5Y, which are considered a model for the assessment of hepatocytotoxicity and neurocytotoxicity. The concentrations of the tested compounds in the range of 250-100 µM were used in the studies. The cell lines used in the research were purchased from the American Type Culture Collection (ATCC) and were cultured in media recommended by the manufacturer with the addition of FBS and antibiotics in an incubator ensuring appropriate culture conditions, i.e. humidity, temperature and CO2 concentration. Cells were seeded into multiwell plates and incubated with the test compounds for 48 hours. After this time, MTT and LDH tests were performed to assess cell viability. The MTT test is based on the ability to transform the substrate: [3-(4,5-dimethyl-2-thiazolyl)-2,5-diphenyl-2H-tetrazolium bromide into a colored product only by living cells. The absorbance at 570 nm, which corresponds to the absorption maximum for the product, is directly proportional to cell viability. The LDH test is based on testing the activity of the enzyme lactate dehydrogenase in the culture medium, which is released from cells as a result of damage to the cell membrane, e.g. as a result of cell death. Triton X-100 was used as a positive control in the test. The determination is colorimetric, the substrate is transformed by the released enzyme into a colored product, an increase in absorbance indicates a larger amount of the released enzyme, and thus confirms greater damage to cell membranes. Tables 7 and 8 present the results obtained, which correspond to the viability of cells incubated with the compounds in relation to the viability of cells constituting a control sample, i.e. incubated with the solvent (DMSO) at the same concentration as in the case of the groups tested in the MTT test or in relation to the results obtained for the Triton X-100 positive control in the LDH test. They indicate that the compounds are safe at the concentrations tested. Table 7. Viability of tested normal human cell lines: keratinocytes (HaCaT), fibroblasts (BJ) and primary melanocytes after incubation with the tested compounds - determination in the MTT test (% of solvent control ± SD) and LDH (percentage of positive control - Triton X-100.
# Hepatocarcinoma HepG2 = assay: Safety, MTT test in HepG2; assay type: cell-based; conditions: 48 hours
# Description: as §1
# [1] = test system: reconstructed human epidermis containing melanocytes MelanoDerm™ MEL-300-B; assay: Melanogenesis inhibition in reconstructed human epidermis containing melanocytes (MelanoDerm); assay type: cell-based; conditions: 1.0% in 50% PEG (10 µL), 14 days
# Description: (§2) The research was carried out on reconstructed human epidermis containing melanocytes MelanoDerm™ MEL-300-B from MatTek (Bratislava, Slovakia). The ratio of keratinocytes to melanocytes in the epidermis used is 10:1. Only medium purchased from the same manufacturer (EPI-100-NMM-113) was used to culture the epidermis during the experiments. Once the epidermis was obtained, it was transferred to 12-well plates containing 5 mL of medium/well. Plates were used to enable proper contact of the lower parts of the inserts with the substrate (so-called hanging-top plate). Solutions of the compounds were prepared immediately before their application. The solutions were applied to the inserts using a positive displacement pipette and then distributed using a sterile glass bulb headed Pasteur pipette. The application was repeated every 48 hours, a total of 7 applications were performed. Before the next application, each insert was rinsed with sterile DPBS and dried with a sterile cotton buds. The application was also accompanied by a change of the medium. […] The epidermis was cultured in an incubator ensuring appropriate humidity, temperature (37 °C) and CO2 concentration (5%).
# The experiment was conducted for 14 days. After this time, the inserts were rinsed with DPBS and dried with a cotton swab. For the selected pool of inserts, tissue viability was assessed using the MTT (Thiazolyl Blue Tetrazolium bromide) test, the remaining ones were used to determine the amount of melanin. To assess viability, the inserts were transferred to 24-well plate containing 0.3 mL of DMEM medium with 1 mg/mL MTT and incubated for 3 hours in an incubator. The epidermis was then placed in 2 mL of isopropanol and the resulting formazan was extracted for 2 hours at room temperature. The absorbance of the samples was measured at 570 nm in a microplate reader and correlated with the absorbance of the control by the formula: % Viability = [OD (570 nm) for test compound/OD (570 nm) for control] × 100. To determine the amount of melanin, the inserts were incubated in 5% sodium bicarbonate for 30 min, then dried and placed in 0.5 mL of Solvable™ reagent, which caused complete lysis of the epidermis. After heating at 95 °C, the absorbance of the samples was measured at 405 nm in a microplate reader. On this basis, the reduction in the amount of melanin was calculated in relation to the control sample. The absorbance results were also correlated with a standard curve for synthetic melanin. […] Table 5. Viability and melanin content in the MelanoDerm epidermis after application of the tested samples, calculated on the basis of absorbance measurements.
# as §2, with “Only media” for “Only medium”, “cotton bud.” for “cotton buds.”
# The experiment was conducted for 14 days. After this time, the inserts were rinsed with DPBS and dried with a cotton bud. […]
# S. typhimurium TA98 = assay: Ames microplate test, TA98; assay type: cell-based, Salmonella typhimurium;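 also: reference level is the mean solvent-control yellow wells plus SD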
# Description: (§3) Bacteria were grown overnight in growth medium.
# (§4) Table 9. Ames microplate test results.
# S. typhimurium TA1537 = assay: Ames microplate test, TA1537; assay type: cell-based, Salmonella typhimurium;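 also: reference level is the mean solvent-control yellow wells plus SD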
# Description: as §3, §4
# S. typhimurium TA1535 = assay: Ames microplate test, TA1535;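 also: bacteria exposed to compound 90 min at 37 °C, then kept 48 h at 37 °C with indicator medium in 384-well plates, scoring wells that turned yellow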
# Description: The study used the Ames microplate test (Ames MPF™ Penta 2 by Xenometrix, Allschwil, Switzerland). Growth medium, exposure medium, indicator medium, positive controls, hepatic microsomal fraction, NADP, glucose-6-phosphate, Salmonella typhimurium and Escherichia coli strains were components of the purchased experimental kit. Bacteria were grown overnight in growth medium. They were then exposed to the test compound at the appropriate concentration in exposure medium without or with the rat microsomal fraction S9 in 24-well plates for 90 min at 37 °C with shaking. Then, indicator medium was added to the wells and pipetted into 384-well plates, which were incubated for 48 hours at 37 °C without shaking. Results were assessed by counting the wells in which the medium turned yellow for each experimental condition.
SMILES,Fibroblasts (BJ) MTT (Fibroblasts (BJ); 100 µM),Fibroblasts (BJ) MTT (Fibroblasts (BJ); 150 µM),Fibroblasts (BJ) MTT (Fibroblasts (BJ); 200 µM),Fibroblasts (BJ) MTT (Fibroblasts (BJ); 250 µM),Hepatocarcinoma HepG2 MTT (Hepatocarcinoma HepG2; 100 µM),Hepatocarcinoma HepG2 MTT (Hepatocarcinoma HepG2; 150 µM),Hepatocarcinoma HepG2 MTT (Hepatocarcinoma HepG2; 200 µM),Hepatocarcinoma HepG2 MTT (Hepatocarcinoma HepG2; 250 µM),"Increase in the number of yellow wells compared to the reference level (S. typhimurium TA98; 0.5 mM, without S9)","Increase in the number of yellow wells compared to the reference level (S. typhimurium TA98; 1.0 mM, without S9)","Increase in the number of yellow wells compared to the reference level (S. typhimurium TA98; 2.0 mM, without S9)","Increase in the number of yellow wells compared to the reference level (S. typhimurium TA1537; 0.5 mM, without S9)","Increase in the number of yellow wells compared to the reference level (S. typhimurium TA1537; 1.0 mM, without S9)","Increase in the number of yellow wells compared to the reference level (S. typhimurium TA1537; 2.0 mM, without S9)","Increase in the number of yellow wells compared to the reference level (S. typhimurium TA1535; 0.5 mM, without S9)","Increase in the number of yellow wells compared to the reference level (S. typhimurium TA1535; 1.0 mM, without S9)","Increase in the number of yellow wells compared to the reference level (S. typhimurium TA1535; 2.0 mM, without S9)",also measured
"O=C(/C=C/c1ccc(Cl)cc1)NCCO [H-427/21, (2E)-3-(4-chlorophenyl)-N-(2-hydroxyethyl)prop-2-enamide]",101.82±3.99 % of solvent control,100.76±3.34 % of solvent control,100.37±3.92 % of solvent control,98.13±2.81 % of solvent control,99.61±4.37 % of solvent control,98.44±3.94 % of solvent control,97.07±4.00 % of solvent control,100.08±10.58 % of solvent control,–,–,–,–,–,–,–,–,–,–
"O=C(/C=C/c1ccccc1)NCCCCCCO [H-425/21, (E)-N-(6-hydroxyhexyl)cinnamic acid amide]",–,–,–,–,–,–,–,–,0.27,0.54,0.80,0.09,0.18,0.82,1.04,0.59,0.45,"Melanin content [% control, mean ± SD] ([1]; 7 applications): 102.98±4.25 % control; Viability [% control, mean ± SD] ([1]; MTT): 87.16±6.30 % control; Increase in the number of yellow wells compared to the reference level (S. typhimurium TA98; 0.5 mM, +S9): 0.42; Increase in the number of yellow wells compared to the reference level (S. typhimurium TA98; 1.0 mM, +S9): 0.42; Increase in the number of yellow wells compared to the reference level (S. typhimurium TA98; 2.0 mM, +S9): 0.63; Increase in the number of yellow wells compared to the reference level (S. typhimurium TA1537; 0.5 mM, +S9): 1.33; Increase in the number of yellow wells compared to the reference level (S. typhimurium TA1537; 1.0 mM, +S9): 0.00; Increase in the number of yellow wells compared to the reference level (S. typhimurium TA1537; 2.0 mM, +S9): 1.00; Increase in the number of yellow wells compared to the reference level (S. typhimurium TA1535; 0.5 mM, +S9): 0.54; Increase in the number of yellow wells compared to the reference level (S. typhimurium TA1535; 1.0 mM, +S9): 0.40; Increase in the number of yellow wells compared to the reference level (S. typhimurium TA1535; 2.0 mM, +S9): 0.94"
"Cc1ccc(/C=C/C(=O)NCCCCCO)cc1 [H-415/21, (2E)-N-(5-hydroxypentyl)-3-(4-methylphenyl)prop-2-enamide]",102.12±2.71 % of solvent control,101.92±2.88 % of solvent control,96.13±3.64 % of solvent control,92.86±4.30 % of solvent control,100.32±1.75 % of solvent control,99.54±5.74 % of solvent control,100.53±3.98 % of solvent control,98.90±4.21 % of solvent control,0.47,0.24,0.35,0.33,0.33,0.00,0.21,0.41,0.10,–
"O=C(/C=C/c1ccc(Cl)cc1)NCCCO [H-330/21, (2E)-3-(4-chlorophenyl)-N-(3-hydroxypropyl)prop-2-enamide]",100.54±5.01 % of solvent control,94.85±3.51 % of solvent control,85.52±3.08 % of solvent control,76.51±1.80 % of solvent control,100.73±4.51 % of solvent control,100.44±3.93 % of solvent control,100.86±6.41 % of solvent control,93.16±1.71 % of solvent control,–,–,–,–,–,–,–,–,–,–
